Source: patent US12303570B2, “Compositions and methods for assessing eye vasculature” (MediBeacon Inc., priority 2015, dated 2025)
Structures can show the parent of a compound that is named as a salt.

How the values were obtained:
[1] = UV/vis absorption and fluorescence of pyrazine dyes; assay type: physicochemical
[2] = cited from earlier work
serum protein = settings: immediately upon intra-venous injection; cited from earlier work
[3] = 100 μM (Example 4 prints 100 μm)

Row | UV/vis λabs ([1]; 100 μM in PBS) [nm] | Fluorescence λem ([1]; 100 nM) [nm] | Fluorescence λex ([1]; 100 nM) [nm] | SMILES | other results
1 | 394 | – | – | COCCN(CCOC)C(=O)c1nc(N)c(C(=O)N(CCOC)CCOC)nc1N [Example 4, 3,6-diamino-N^2,N^2,N^5,N^5-tetrakis(2-methoxyethyl) pyrazine-2,5-dicarboxamide] | Fluorescence λex [1, 3]: 394 nm; Fluorescence λem ([1]; 100 μm): 550 nm
2 | 434 | – | – | COCCN(CCOC)C(=O)c1nc(N(CCOC)CCOC)c(C(=O)N(CCOC)CCOC)nc1N(CCOC)CCOC [Example 6] | Fluorescence λem ([1]; concentration not given): 559 nm; Fluorescence λex ([1]; concentration not given): 449 nm
3 | 435 | 562 | 449 | NCCNC(=O)c1nc(N)c(C(=O)NCCN)nc1N [Example 7, 3,6-diamino-N^2,N^5-bis(2-aminoethyl)pyrazine-2,5-dicarboxamide Bis TFA Salt] | –
4 | 449 | 559 | 449 | COCCOCCOCCOCCOCCOCCOCCOCCOCCOCCOCCOCCC(=O)NCCNC(=O)c1nc(N)c(C(=O)NCCNC(=O)CCOCCOCCOCCOCCOCCOCCOCCOCCOCCOCCOCCOC)nc1N [Example 11, 3,6-diamino-N^2,N^5-bis(38-oxo-2,5,8,11,14,17,20,23,26,29,32,35-dodecaoxa-39-azahentetracontan-41-y) pyrazine-2,5-dicarboxamide] | –
5 | 438 | – | – | COCCN(CCOC)c1nc(C(=O)N[C@H](CC(=O)O)C(=O)O)c(N2CCOCC2)nc1C#N [Example 13, (R)-2-(6-(bis(2-methoxyethyl)amino)-5-cyano-3-morpholinopyrazine-2-carboxamido)succinic Acid] | Fluorescence λem ([1]; 100 μM): 570 nm; Fluorescence λex [1, 3]: 449 nm

The next lines start with the molecule.

Row | SMILES | UV/vis λabs ([1]; 100 μM in PBS) [nm] | Fluorescence λem ([1]; 100 nM) [nm] | Fluorescence λex ([1]; 100 nM) [nm] | other results
6 | Nc1nc(C(=O)N[C@H](CO)C(=O)O)c(N)nc1C(=O)N[C@H](CO)C(=O)O [Example 2, 3,6-diamino-N^2,N^5-bis(D-serine)-pyrazine-2,5-dicarboxamide] | 434 | – | – | light absorption maximum [1]: 445 nm; light emission maximum [1]: 560 nm; Fluorescence λem ([1]; concentration not given): 559 nm; Fluorescence λex ([1]; concentration not given): 449 nm
7 | Nc1nc(C(=O)N[C@@H](CO)C(=O)O)c(N)nc1C(=O)N[C@@H](CO)C(=O)O [Example 3, 3,6-diamino-N^2,N^5-bis(L-serine)-pyrazine-2,5-dicarboxamide] | – | – | – | light absorption maximum [1]: 445 nm; light emission maximum [1]: 560 nm
8 | Nc1nc(C(=O)NCC(O)CO)c(N)nc1C(=O)NCC(O)CO (stereo not shown) [Example 5, 3,6-diamino-N^2,N^5-bis (2,3-dihydroxypropyl) pyrazine-2,5-dicarboxamide] | – | – | – | UV/vis λabs ([1]; 100 μM in H2O): 432 nm; Fluorescence λem ([1]; concentration not given): 558 nm; Fluorescence λex ([1]; concentration not given): 432 nm
9 | Nc1nc(C(=O)N[C@H](CC(=O)O)C(=O)O)c(N)nc1C(=O)N[C@H](CC(=O)O)C(=O)O [Example 8, 3,6-diamino-N^2,N^5-bis(D-aspartate)-pyrazine-2,5-dicarboxamide] | 433 | 558 | 449 | –
10 | COCCOCCOCCOCCC(=O)NCCNC(=O)c1nc(N)c(C(=O)NCCNC(=O)CCOCCOCCOCCOC)nc1N [Example 9, 3,6-diamino-N^2,N^5-bis(14-oxo-2,5,8,11-tetraoxa-15-azaheptadecan-17-yl) pyrazine-2,5-dicarboxamide] | 437 | 559 | 437 | –
11 | COCCOCCOCCOCCOCCOCCOCCOCCC(=O)NCCNC(=O)c1nc(N)c(C(=O)NCCNC(=O)CCOCCOCCOCCOCCOCCOCCOCCOC)nc1N [Example 10, 3,6-diamino-N^2,N^5-bis(26-oxo-2,5,8,11,14,17,20,23-octaoxa-27-azanonacosan-29-yl)pyrazine-2,5-dicarboxamide] | 438 | 560 | 438 | –
12 | O=C1OC2(c3ccc(O)cc3Oc3cc(O)ccc32)c2ccccc21 [Sodium fluorescein] | – | – | – | lipid solubility [2]: relatively high; converted to non-fluorescent serum protein bound molecule (serum protein): 93%
13 | O=C1OC2(c3ccc(O)cc3Oc3cc(O[C@@H]4O[C@H](C(=O)O)[C@@H](O)[C@H](O)[C@H]4O)ccc32)c2ccccc21 (stereo partly shown) [fluorescein glucuronide] | – | – | – | fluorescent yield relative to fluorescein ([2]; metabolite versus parent): 5%
